Experimental data as given in US7923204B2, “Forward mutation assay based on 5-fluorouracil resistance” (priority 2003, dated 2011).
Counter-ions that a name gives are not always drawn. Like-named read-outs stand apart in the source and are kept apart here. Marks after values point to notes of the source that are not given here.

Legend:
FU100 [1] = test system: FU100
Description: Briefly, in order to practice the disclosed mutation assay one-ml aliquots of exponentially growing bacteria are exposed to the test agent for two hours in the presence and absence of a metabolic activation system, such as a mammalian (i.e., rat, hamster or human) liver homogenate (S9-fraction or liver microsomal enzymes). The aliquots are then diluted, allowed to grow for 3 hours, and assessed for treatment-related toxicity/inhibition by optical density. The cultures are subsequently diluted a second time and grown overnight to permit full recovery from toxicity and to allow expression of the FU^R phenotype. Samples of the cultures are then plated in 384-well microtiter dishes in the presence of 2 μg/ml 5-FU and the pH-sensitive indicator bromcresol purple. Three days later positive wells containing FU^R colonies are detected by their yellow color and enumerated. Treated cultures are then compared to control plates to determine genotoxic activity.
For each mutation experiment, two frozen 1-ml aliquots of FU100 were quickly thawed in a 37° C. water bath, pelleted by centrifugation, washed to remove the DMSO, and suspended in 35 mL of MinE medium. The culture was shaken for approximately 1 hour at 37° C. until the optical density at 600 nm (OD600) reached the target density of 0.3. A 16-ml aliquot of culture was added to each of two 50-ml tubes containing 3.6 ml of a NADPH-generating system (5.6 mM glucose-6-phosphate, 4.5 mM NADP+, 5 mM sucrose, 110 mM Na2HPO4, 37 mM KCl, and 9 mM MgCl2) and either 0.4 ml rat liver S-9 or an equal volume of sodium phosphate buffer. Aliquots of these mixtures were distributed into three 12-well cluster dishes (one for exposure with S-9, one for exposure without S-9, one for controls with and without S-9), and exposed to test compounds as 1-ml aliquots for 2 hour as outlined in FIG. 1.
Following treatment, the 1-ml aliquots were transferred into 9 ml of warm MinE medium in a 50 ml tube and incubated at 37° C. on a rotary wheel for 3 hours. Next, 20 ml of medium was added to each culture tube and 0.25 ml aliquots were transferred to a 96-well plate for OD600 measurements to assess toxicity (OD Day 1). […] Bulk cultures were then incubated overnight in the dark at 30° C. to permit recovery from toxicity and to allow time for the test cells to express the FU^R phenotype.
The next day, OD600 was again assessed to adjust cell number plated on 5-FU plates (OD Day 2; 100 μl of the culture diluted with 150 μl MinE medium for OD600 measurements). For plating, a 35 μl aliquot of each culture was added to 31.4 mL of MinE medium with 2 μg/ml of 5-FU and 10 μg/ml of bromcresol purple. The mixture was then dispersed into a 384-well plate (75 μl/well) and placed at 37° C. for 3 days in a humidified incubator.
The data obtained for both survival (OD day 1), relative number of cells plated (OD day 2), and number of positive wells were imported into an Excel template.
Table 8 summarizes the criteria for positive result in 5-FU assay using the FU100 tester strain described and claimed herein. […] A positive compound was defined when two or more doses met the aforementioned criteria.

[2] = test system: sister chromatid exchange; details: cited from earlier work
chromosome aberrations = details: cited from earlier work
Salmonella = details: cited from earlier work
FU100 [3] = test system: FU100; remark: listed apart in the source
mouse lymphoma = details: cited from earlier work
[4] = in the presence of S9 activation (+), FU100, 2 h exposure
[5] = without S9 activation (−), FU100, 2 h exposure
[6] = NTP Results Report 12 Aug. 2002
[7] = NTP Results Report 12 Aug. 2002 or cited reference (footnotes f, g, i, j)
[8] = in the presence of S9 activation (+), approximate, first dose with greater than 50% survival by optical density on Day 1
[9] = without S9 activation (−), approximate, first dose with greater than 50% survival by optical density on Day 1
[10] = in the presence of S9 activation (+), lowest dose tested giving a positive response
[11] = text and figure legend (FIG. 6), with or without S9
[12] = without S9 activation (−), lowest dose tested giving a positive response

| Compound | Results (5-FU assay) (FU100 [1]) | Results (5-FU assay) (FU100 [1]; [4]) | Results (5-FU assay) (FU100 [1]; [5]) | NTP Results: SC = sister chromatid exchange [2, 6] | NTP Results: CA = chromosome aberrations (chromosome aberrations; [6]) | NTP Results: SA = Salmonella (Salmonella; [7]) | LD50 (FU100 [3]; [8]) | LD50 (FU100 [3]; [9]) | Lowest Positive Dose (FU100 [1]; [10]) | Lowest Positive Dose (FU100 [1]; [12]) | other results |
| --- | --- | --- | --- | --- | --- | --- | --- | --- | --- | --- | --- |
| CC(O)CCl (centres unmarked) [1-Chloro-2-propanol] | Pos^w |  |  |  |  |  |  |  |  |  | Lowest Positive Dose (FU100 [1]): 2800 µg/mL; Results (5-FU assay) (FU100 [1]; s9): Neg; NTP Results: SC = sister chromatid exchange [2]: (SA+, CA+, SC+); NTP Results: CA = chromosome aberrations (chromosome aberrations): (SA+, CA+, SC+); NTP Results: SA = Salmonella (Salmonella): (SA+, CA+, SC+) |
| OCc1ccccc1 [Benzyl Alcohol] |  | Neg | Neg | +^w | + | − | >500 µg/mL | >900 µg/mL |  |  |  |
| CC/C(=C(/CC)c1ccc(O)cc1)c1ccc(O)cc1 [Diethylstilbestrol] | Neg |  |  | − | + |  |  |  |  |  | NTP Results: SA = Salmonella (Salmonella): (SA−, CA+, SC−, ML+); NTP Results: ML = mouse lymphoma (mouse lymphoma; [6]): + |
| CN(C)N=O [N-Nitrosodimethylamine] |  | Pos | Neg | (SA+, CA+, SC+) | (SA+, CA+, SC+) | (SA+, CA+, SC+) | >2000 µg/mL | >2000 µg/mL | 360 µg/mL |  |  |
| Oc1ccccc1 [Phenol] | Neg |  |  |  |  |  |  |  |  |  | response in the 5-FU Assay (in words) (FU100 [1]): negative/toxic; NTP Results: SC = sister chromatid exchange [2]: (SA−, CA+, SC+, ML+); NTP Results: CA = chromosome aberrations (chromosome aberrations): (SA−, CA+, SC+, ML+); NTP Results: SA = Salmonella (Salmonella): (SA−, CA+, SC+, ML+); NTP Results: ML = mouse lymphoma (mouse lymphoma): (SA−, CA+, SC+, ML+) |
| Cl.Nc1c2ccccc2nc2ccccc12.O [9-Aminoacridine•HCl•H2O] |  | Pos | Pos | (SA+, CA+, SC+) | (SA+, CA+, SC+) | (SA+, CA+, SC+) | >9 µg/mL | >9 µg/mL | 16 µg/mL | 16 µg/mL | response in the 5-FU Assay (in words) (FU100 [1]; [11]): positive compounds in toxic concentrations |
| Cc1ccc2cc3c(ccc4ccccc43)c3c2c1CC3 [20-Methylcholanthrene] |  | Pos | Pos | + | − | + | >50 µg/mL | >50 µg/mL | 0.2 µg/mL | 5 µg/mL |  |
| OCCO [Ethylene Glycol] | Neg |  |  |  |  |  |  |  |  |  | NTP Results: SC = sister chromatid exchange [2]: (SA−, CA−, SC−, ML−); NTP Results: CA = chromosome aberrations (chromosome aberrations): (SA−, CA−, SC−, ML−); NTP Results: SA = Salmonella (Salmonella): (SA−, CA−, SC−, ML−); NTP Results: ML = mouse lymphoma (mouse lymphoma): (SA−, CA−, SC−, ML−); LD50 (FU100 [3]; Salmonella typhimurium): >5000 µg/mL |
| O=[N+]([O-])c1ccc(O)cc1 [p-Nitrophenol] |  | Neg | Neg | − | + | − | >50 µg/mL | >50 µg/mL |  |  |  |
| C[S+](C)[O-] [Dimethyl Sulfoxide] |  | Neg | Neg | (SA−, CA−, SC−) | (SA−, CA−, SC−) | (SA−, CA−, SC−) | >5000 µg/mL | >5000 µg/mL |  |  |  |
| CN(C)[C@@H]1C(O)=C(C(N)=O)C(=O)[C@@]2(O)C(O)=C3C(=O)c4c(O)cccc4[C@@](C)(O)[C@H]3C[C@@H]12 [Tetracycline HCl] | Neg |  |  | − | − | − | >0.1 µg/mL | >0.1 µg/mL |  |  |  |
| Nc1ccc2cc3ccc(N)cc3nc2c1 [Proflavine HCl] |  | Pos | Pos^w |  |  | (SA+) | >10 µg/mL | >10 µg/mL | 0.1 µg/mL | 16 µg/mL |  |
| COc1ccc2nc3cc(Cl)ccc3c(NCCCNCCCl)c2c1 [ICR-191] |  | Pos | Pos |  |  | (SA+) | >10 µg/mL | >3 µg/mL | 3.2 µg/mL | 0.2 µg/mL | response in the 5-FU Assay (in words) (FU100 [1]; [11]): positive compounds in non-toxic concentrations |
| Cc1cccc(Nc2cc(Cl)nc(SCC(=O)O)n2)c1C [Wyeth 14,643] |  | Neg | Neg |  |  | (SA−) | >900 µg/mL | >900 µg/mL |  |  |  |
| Oc1ccc(Cl)cc1Cl [2,4-Dichlorophenol] |  | Neg | Neg | + | − |  |  |  |  |  | NTP Results: ML = mouse lymphoma (mouse lymphoma; [6]): + |
| Nc1ccc2cc3ccccc3cc2c1 [2-Aminoanthracene] |  | Pos | Pos | + |  | + | >2 µg/mL | >10 µg/mL | 0.2 µg/mL | 0.6 µg/mL |  |
